# Results taken from article PMC5209733, “U24 from Roseolovirus interacts strongly with Nedd4 WW Domains” (Scientific Reports, 2017).
# No end group written: not given here.
# Columns and labels:
# Assay type in all cases: binding
# rNedd4-WW3/4 = target: T1, rNedd4-WW3/4 (Rattus norvegicus, UniProt Q62940); assay: Isothermal titration calorimetry, rNedd4-WW3/4; settings: ITC, 25 °C, 10 mM sodium phosphate
# T1 construct: GST fusion proteins of the second and third WW domains (WW2 and WW3/4) of rNedd4; GST (N, cleaved yes); made in house; host or cells: E. coli BL21(DE3)
# Procedure: (§1) In order to compare the affinities between the U24 proteins and WW domains, the equilibrium dissociation constant (KD) for the interaction between each U24:Nedd4-WW domain pair tested above was determined using ITC. […] ITC experiments using these peptides as titrants were carried out on Nedd4-WW domains in 10 mM sodium phosphate, pH 7.4, at 25 °C. Control experiments in which the phosphate buffer was titrated into the protein solutions were also conducted to ensure the proteins were stable during the titration with peptide.
# Importantly, this is the tightest affinity characterized to date between a U24 peptide ligand and WW domains.
# In order to find out whether electrostatic interactions play a role in the binding of the three U24 peptides tested here to the Nedd4-WW domains, a set of ITC experiments were performed as a function of increasing salt concentration, 0 mM, 100 mM and 500 mM, in 10 mM sodium phosphate, pH 7.4, at 25 °C, for rNedd4-WW3/4 and hNedd4L-WW3*. Affinities and molar binding enthalpies (ΔH) for each U24:WW-domain pair as a function of salt concentration are plotted in Supplementary Fig. 2 and Fig. 3c and d, respectively.
# (§2) Two cDNA clones containing human E3 ubiquitin-protein ligase Nedd4 (KIAA0093) and Nedd4-like protein (KIAA0439) were ordered from Kazusa DNA research institute (Chiba, Japan). The DNA fragment of the third WW domain of both proteins was amplified and inserted into BamHI and XhoI sites of pGEX-4T2 vector (GE Healthcare). The plasmids containing GST fusion proteins of the second and third WW domains (WW2 and WW3/4) of rNedd4 were kind gifts from Dr. Julie D. Forman-Kay (Hospital for Sick Children, Toronto). All plasmids were transformed into E. coli BL21(DE3) for expression at 25 °C for 16 hours using a final concentration of 400 μM IPTG. ^15N labelled protein was expressed in M9 media supplemented with ^15N labelled NH4Cl. The cells were harvested by centrifugation and stored in the −80 °C freezer until further use. The cell paste from approximately 600 mL culture was thawed on ice and resuspended in 10 mL PBS supplemented with 1% Triton X-100 (PBS/Triton buffer). Lysozyme, protease inhibitor and DNAse were added in the mixture. The mixture was incubated on ice for half an hour, then was lysed in an ice bath by sonication. After being centrifuged at 9,000 rpm for 1 hour, the supernatant was filtered using a 0.45 μm filter, and then applied to 2 mL of PBS washed Glutathione Sepharose 4B resin (GE Healthcare, GST 4B resin). The resin slurry with cell lysate was incubated for 2 hours at room temperature, and then washed with PBS/Triton buffer six times. The resin was collected by centrifugation at 600 × g for 5 minutes.
# In order to obtain WW domains without the GST tag, the proteins were extracted and immobilized on GST 4B resin as described above. The resin was washed three times with PBS buffer, after the washing with PBS/Triton buffer. 3 mL PBS buffer and 150 units of thrombin (GE Healthcare) were added into the pelleted resin and the slurry was incubated at room temperature for 16 hours. The supernatant containing cleaved WW domains were collected on the second day by centrifugation. The residual thrombin in this fraction was removed using p-Aminobenzamidine-agarose (Sigma-Aldrich) and fresh GST 4B resin was used to remove the GST contaminants. The WW domain containing fraction was dialyzed at 4 °C against 2 L phosphate buffer (10 mM sodium phosphate, pH 7.4) using 2,000 MWCO dialysis membrane overnight for ITC or NMR experiments, or phosphate buffer with various salt concentrations (phosphate buffer with 100 mM or 500 mM NaCl) for ITC experiments.
# After overnight dialysis, the cleaved Nedd4 WW domains in phosphate buffer, with different salt concentrations, were ready for use in ITC experiments. The dialysis buffer was kept as a sample-free buffer to measure the heats of dilution. […]
# hNedd4-WW3* = target: T2, hNedd4-WW3* (Homo sapiens, UniProt P46934); assay: Isothermal titration calorimetry, hNedd4-WW3*; settings: ITC, 25 °C, 10 mM sodium phosphate, pH 7.4; mean of three separate runs ± one SD
# T2 construct: The DNA fragment of the third WW domain of both proteins was amplified; GST (N, cleaved yes); made in house; host or cells: E. coli BL21(DE3)
# Procedure: as §1
# (§3) Two cDNA clones containing human E3 ubiquitin-protein ligase Nedd4 (KIAA0093) and Nedd4-like protein (KIAA0439) were ordered from Kazusa DNA research institute (Chiba, Japan). The DNA fragment of the third WW domain of both proteins was amplified and inserted into BamHI and XhoI sites of pGEX-4T2 vector (GE Healthcare). […]
# (§4) After overnight dialysis, the cleaved Nedd4 WW domains in phosphate buffer, with different salt concentrations, were ready for use in ITC experiments. […] The concentration of the sample was determined by the absorbance at 280 nm in 6 M Guanidine HCl on a UV-Vis spectrophotometer, and calculated using the theoretical extinction coefficient obtained from the ProtParam tool[51]. […] The peptide amounts were determined gravimetrically and calibrated according to the absorbance at 280 nm in 6 M Guanidine HCl. […]
# hNedd4L-WW3* = target: T3, hNedd4L-WW3* (Homo sapiens, UniProt Q96PU5); assay: Isothermal titration calorimetry, hNedd4L-WW3*; settings: ITC, 25 °C, 10 mM sodium phosphate
# T3 construct: The DNA fragment of the third WW domain of both proteins was amplified; GST (N, cleaved yes); made in house; host or cells: E. coli BL21(DE3)
# Procedure: as §1
# In order to find out whether electrostatic interactions play a role in the binding of the three U24 peptides tested here to the Nedd4-WW domains, a set of ITC experiments were performed as a function of increasing salt concentration, 0 mM, 100 mM and 500 mM, in 10 mM sodium phosphate, pH 7.4, at 25 °C, for rNedd4-WW3/4 and hNedd4L-WW3*.
# as §2
# In order to obtain WW domains without the GST tag, the proteins were extracted and immobilized on GST 4B resin as described above. The resin was washed three times with PBS buffer, after the washing with PBS/Triton buffer. […]
# After overnight dialysis, the cleaved Nedd4 WW domains in phosphate buffer, with different salt concentrations, were ready for use in ITC experiments. […]
# rNedd4-WW2 = target: T4, rNedd4-WW2 (Rattus norvegicus, UniProt Q62940); assay: Isothermal titration calorimetry, rNedd4-WW2; settings: ITC, 25 °C, 10 mM sodium phosphate, pH 7.4; mean of three separate runs ± one SD
# T4 construct: GST fusion proteins of the second and third WW domains (WW2 and WW3/4) of rNedd4; GST (N, cleaved yes); made in house; host or cells: E. coli BL21(DE3)
# Procedure: as §1, §3, §4
# [1] = pH 7.4, extra 100 mM NaCl, three runs
# [2] = pH 7.4, extra 500 mM NaCl, three runs
# [3] = pH 7.4, mean of three separate runs ± one SD
# T1 sequence (Q62940 459-492 limits assumed): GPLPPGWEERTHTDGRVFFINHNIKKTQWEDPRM
# T3 sequence (Q96PU5 497-530 limits assumed): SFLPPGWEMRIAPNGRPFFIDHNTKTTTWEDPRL
# T4 sequence (Q62940 402-435 limits assumed): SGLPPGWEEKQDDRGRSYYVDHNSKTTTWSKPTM
# T2 sequence (P46934 840-873 limits assumed): as the sequence (Q96PU5 497-530 limits assumed) above, with S1G, P5K, M9V, I11H counted along it
Compound,Kd (rNedd4-WW3/4; [1]) [µM],Kd (rNedd4-WW3/4; [2]) [µM],Kd (hNedd4-WW3*) [µM],Kd (hNedd4L-WW3*; [1]) [µM],Kd (hNedd4L-WW3*; [2]) [µM],Kd (hNedd4L-WW3*; [3]) [µM],Kd (rNedd4-WW2) [µM],Kd (rNedd4-WW3/4; [3]) [µM]
CSCC[C@H](N)C(=O)N[C@@H](CC(=O)O)C(=O)N1CCC[C@H]1C(=O)N1CCC[C@H]1C(=O)N[C@@H](CCCNC(=N)N)C(=O)N[C@H](C(=O)N1CCC[C@H]1C(=O)N1CCC[C@H]1C(=O)N1CCC[C@H]1C(=O)N[C@@H](CO)C(=O)N[C@@H](Cc1ccc(O)cc1)C(=O)N[C@@H](CO)C(=O)N[C@@H](CCC(=O)O)C(=O)N[C@H](C(=O)N[C@@H](CC(C)C)C(=O)O)C(C)C)[C@@H](C)O [U24-6A],35.7,30.6,9.7 ± 0.2,6.9,6.1,6.3 ± 0.3,155 ± 12,
"IKHEPENPPPYEEAM [Nogo-A, reference compound]",,,,,,4 ± 0.2,,
CSCC[C@H](N)C(=O)N[C@@H](CC(=O)O)C(=O)N1CCC[C@H]1C(=O)N1CCC[C@H]1C(=O)N[C@@H](CCCNC(=N)N)C(=O)N[C@H](C(=O)N1CCC[C@H]1C(=O)N1CCC[C@H]1C(=O)N1CCC[C@H]1C(=O)N[C@@H](CO)C(=O)N[C@@H](Cc1ccc(O)cc1)C(=O)N[C@@H](CO)C(=O)N[C@@H](CCC(=O)O)C(=O)N[C@H](C(=O)N[C@@H](CC(C)C)C(=O)O)C(C)C)[C@@H](C)OP(=O)(O)O [pU24-6A],12,9.5,,,,,,
MTHETPPPSYNDVML [U24-7],14.6,13.2,1.98 ± 0.04,,,,87 ± 5,21 ± 0.5
